Source: patent publication US8143403B2 (Bristol-Myers Squibb Company, priority 2008, dated 2012)
Marks after values point to notes of the source that are not given here. No end group written: not given here.

Assays:
[1] = test system: i.v. hαCGRP-induced increase in middle meningeal artery diameter and facial blood flow; test: Validation of facial blood flow as surrogate for intracranial artery dilation in the rat; format: in vivo; settings: pretreatment, n=5 rats
[2] = test system: CGRP-induced increase in laser Doppler facial blood flow; test: Inhibition of CGRP-induced increase in laser Doppler facial blood flow in non-human primate; format: in vivo, common marmoset (Callithrix jacchus)
Experimental: FIG. 4. […] Data are peak % change from baseline±sem, with each animal serving as its own control.
Saturation/Scatchard Analysis. […] Saturation data were analyzed using a one site binding equation to estimate apparent equilibrium dissociation constant (Kd) and the maximum number of binding sites (Bmax) (Prizm v4.0, Graphpad). […] Functional Antagonism/Schild analysis. Agonist stimulation of CGRP receptor complex leads to cyclic AMP (adenosine 3′5′-cyclic monophosphate) production via Gs-dependent activation of an adenylate cyclase (Juaneda C et al., TiPS, 2000; 21:432-438). Consequently, CGRP receptor antagonists inhibit CGRP-induced cyclic AMP formation in SK-N-MC cells which natively express the CGRP receptor complex (Doods H et al., Br J Pharmacol, 2000; 129(3):420-423). […] A Schild analysis format was used, which allowed investigation of the mechanism of antagonism. […] Various concentrations of CGRP were added and the cells were allowed to incubate 30 min at room temperature. The cells were lysed with lysis reagent and cAMP concentrations were determined by HTRF according to the manufacturer's instructions. A standard curve using known quantities of cAMP was evaluated in parallel to allow conversion of HTRF ratio to nM cAMP. The resulting curves were then evaluated using a Gaddum/Schild equation individually and with global fitting (Prizm v4.0, Graphpad). […] To obtain a global fit the following parameters were shared (top, bottom, logEC50, Hill slope and pA2) and all curves were fit simultaneously. […] Non-Terminal Method for Assessing In Vivo Efficacy of Small Molecule CGRP-Receptor Antagonists in Mammals Overview. […] Non-human primates (e.g., marmosets) are the only animals known to have human-like CGRP receptor pharmacology conferred by the presence of the specific amino acid residue (Trp74) in their RAMP1 sequence which is responsible for the phenotype of the human receptor (Mallee et al. J Biol Chem 2002 277:14294). Since current migraine models primarily use rats (Escott et al. Brain Res 1995 669:93; Williamson et al. Cephalalgia 1997 17:525), or are invasive, terminal procedures in primates (Doods et al. Br J Pharmacol 2000 129:420), a novel non-invasive, survival model in non-human primates for in vivo efficacy assessment of CGRP-receptor antagonists was developed. […] Peptide and small-molecule CGRP-receptor antagonists were used to validate the non-human primate model. […] Animals. Adult male and female common marmosets (Callithrix jacchus) purchased from Harlan and weighing 350-550 g served as subjects. Anesthesia & Surgical Preparation. Animals are anesthetized by isoflurane inhalation in an induction chamber (4-5% rapid induction, maintained with 1-2.5%; Solomon et al., 1999).

“haCGRP(8-37): peptide antagonist, peptide fragment CGRP(8-37) (VTHRLAGLLSRSGGVVKNNFVPTNVGSKAF; ends and bridges not checked; UniProt P06881 90-119, looked up, fragment) [reference compound]” was tested, and the “inhibition of i.v. hαCGRP-induced increase in facial blood flow” value [1] was 50%, the “inhibition of i.v. hαCGRP-induced increase in middle meningeal artery diameter” value [1] was 50% and the “% Inhibition” value ([2]; 1 mg/kg i.v., pretreat 0 min, 15 min, hαCGRP 10 μg/kg i.v.) was 87.2* %. The “inhibition of i.v. CGRP-stimulated increases in primate facial blood flow” value ([2]; pre-treatment) was “dose-dependently inhibited”.
